Data as given in patent publication US9650361B2, “N-(pyridin-2-yl)pyrimidin-4-amine derivatives containing a sulfoximine group” (BAYER PHARAM AKTIENGESELLSCHAFT, priority 2012, dated 2017).
Read-outs that look alike come from different tables or passages of the source.

Key:
HeLa cells = assay: Proliferation assay, HeLa (Method 3); type: cell-based, human; settings: 4 days, crystal violet, read-out: Inhibition of HeLa cell proliferation IC50
Method: Cultivated tumour cells (HeLa, human cervical tumour cells, ATCC CCL-2; NCI-H460, human non-small cell lung carcinoma cells, ATCC HTB-177; A2780, human ovarian carcinoma cells, ECACC #93112519; DU 145, hormone-independent human prostate carcinoma cells, ATCC HTB-81; HeLa-MaTu-ADR, multidrug-resistant human cervical carcinoma cells, EPO-GmbH Berlin; Caco-2, human colorectal carcinoma cells, ATCC HTB-37; B16F10, mouse melanoma cells, ATCC CRL-6475) were plated at a density of 5,000 cells/well (DU145, HeLa-MaTu-ADR), 3,000 cells/well (NCI-H460, HeLa), 2,500 cells/well (A2780), 1,500 cells/well (Caco-2), or 1,000 cells/well (B16F10) in a 96-well multititer plate in 200 μL of their respective growth medium supplemented 10% fetal calf serum. After 24 hours, the cells of one plate (zero-point plate) were stained with crystal violet (see below), while the medium of the other plates was replaced by fresh culture medium (200 μl), to which the test substances were added in various concentrations (0 μM, as well as in the range of 0.001-10 μM; the final concentration of the solvent dimethyl sulfoxide was 0.5%). The cells were incubated for 4 days in the presence of test substances. Cell proliferation was determined by staining the cells with crystal violet: the cells were fixed by adding 20 μl/measuring point of an 11% glutaric aldehyde solution for 15 minutes at room temperature. After three washing cycles of the fixed cells with water, the plates were dried at room temperature. The cells were stained by adding 100 μl/measuring point of a 0.1% crystal violet solution (pH 3.0). After three washing cycles of the stained cells with water, the plates were dried at room temperature. The dye was dissolved by adding 100 μl/measuring point of a 10% acetic acid solution. The extinction was determined by photometry at a wavelength of 595 nm. The change of cell number, in percent, was calculated by normalization of the measured values to the extinction values of the zero-point plate (=0%) and the extinction of the untreated (0 μm) cells (=100%). The IC50 values (inhibitory concentration at 50% of maximal effect) were determined by means of a 4 parameter fit.

CDK9/CycT1 = target: T1, CDK9/CycT1 (Homo sapiens, UniProt P50750); assay: CDK9/CycT1 high ATP kinase assay (Method 1b); type: biochemical; settings: 2 mM ATP
T1 construct: Recombinant full-length His-tagged human CDK9 and CycT1; His; purchased Invitrogen PV4131; host or cells: insect cells
T1 sequence (P50750 whole entry): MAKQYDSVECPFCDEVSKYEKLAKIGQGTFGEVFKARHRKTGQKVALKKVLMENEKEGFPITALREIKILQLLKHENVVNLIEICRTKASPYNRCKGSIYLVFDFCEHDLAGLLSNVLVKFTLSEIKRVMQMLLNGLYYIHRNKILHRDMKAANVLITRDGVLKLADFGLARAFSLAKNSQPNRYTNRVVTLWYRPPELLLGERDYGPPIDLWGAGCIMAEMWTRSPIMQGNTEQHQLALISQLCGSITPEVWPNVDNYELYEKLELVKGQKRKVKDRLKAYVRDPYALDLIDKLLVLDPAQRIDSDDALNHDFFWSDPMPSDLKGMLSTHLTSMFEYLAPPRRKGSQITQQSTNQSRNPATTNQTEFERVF
T1 sequence (O60563 whole entry partner): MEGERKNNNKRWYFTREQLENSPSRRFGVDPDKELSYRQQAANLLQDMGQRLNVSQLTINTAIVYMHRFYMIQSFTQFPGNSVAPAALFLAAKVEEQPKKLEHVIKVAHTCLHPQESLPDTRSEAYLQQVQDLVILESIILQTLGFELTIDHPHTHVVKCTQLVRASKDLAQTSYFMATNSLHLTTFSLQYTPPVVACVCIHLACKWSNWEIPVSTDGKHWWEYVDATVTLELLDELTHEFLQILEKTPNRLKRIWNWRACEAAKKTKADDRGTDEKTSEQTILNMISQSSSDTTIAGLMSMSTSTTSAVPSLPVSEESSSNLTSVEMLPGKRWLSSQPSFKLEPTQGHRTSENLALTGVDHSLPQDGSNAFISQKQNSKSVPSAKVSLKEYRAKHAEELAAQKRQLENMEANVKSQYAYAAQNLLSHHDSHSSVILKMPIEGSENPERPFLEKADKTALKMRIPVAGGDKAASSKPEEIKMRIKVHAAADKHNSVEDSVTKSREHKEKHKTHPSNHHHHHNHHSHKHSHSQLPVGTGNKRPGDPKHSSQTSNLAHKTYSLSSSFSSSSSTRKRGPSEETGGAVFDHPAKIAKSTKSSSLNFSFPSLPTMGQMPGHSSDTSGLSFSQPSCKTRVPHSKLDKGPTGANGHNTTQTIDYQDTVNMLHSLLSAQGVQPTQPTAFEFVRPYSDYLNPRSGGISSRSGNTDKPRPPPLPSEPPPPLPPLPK
Method: 1b. CDK9/CycT1 High ATP Kinase Assay
CDK9/CycT1-inhibitory activity of compounds of the present invention at a high ATP concentration after preincubation of enzyme and test compounds was quantified employing the CDK9/CycT1 TR-FRET assay as described in the following paragraphs.
Recombinant full-length His-tagged human CDK9 and CycT1, expressed in insect cells and purified by Ni-NTA affinity chromatography, were purchase from Invitrogen (Cat. No PV4131). As substrate for the kinase reaction biotinylated peptide biotin-Ttds-YISPLKSPYKISEG (C-terminus in amid form) was used which can be purchased e.g. form the company JERINI peptide technologies (Berlin, Germany).
For the assay 50 nl of a 100 fold concentrated solution of the test compound in DMSO was pipetted into a black low volume 384 well microtiter plate (Greiner Bio-One, Frickenhausen, Germany), 2 μl of a solution of CDK9/CycT1 in aqueous assay buffer [50 mM Tris/HCl pH 8.0, 10 mM MgCl2, 1.0 mM dithiothreitol, 0.1 mM sodium ortho-vanadate, 0.01% (v/v) Nonidet-P40 (Sigma)] were added and the mixture was incubated for 15 min at 22° C. to allow pre-binding of the test compounds to the enzyme before the start of the kinase reaction. Then the kinase reaction was started by the addition of 3 μl of a solution of adenosine-tri-phosphate (ATP, 3.3 mM=>final conc. in the 5 μl assay volume is 2 mM) and substrate (1.67 μM=>final conc. in the 5 μl assay volume is 1 μM) in assay buffer and the resulting mixture was incubated for a reaction time of 25 min at 22° C. The concentration of CDK9/CycT1 was adjusted depending of the activity of the enzyme lot and was chosen appropriate to have the assay in the linear range, typical concentrations were in the range of 0.5 μg/ml. The reaction was stopped by the addition of 5 μl of a solution of TR-FRET detection reagents (0.2 μM streptavidine-XL665 [Cisbio Bioassays, Codolet, France] and 1 nM anti-RB(pSer807/pSer811)-antibody from BD Pharmingen [#558389] and 1.2 nM LANCE EU-W1024 labeled anti-mouse IgG antibody [Perkin-Elmer, product no. AD0077]) in an aqueous EDTA-solution (100 mM EDTA, 0.2% (w/v) bovine serum albumin in 100 mM HEPES/NaOH pH 7.0).
The resulting mixture was incubated 1 h at 22° C. to allow the formation of complex between the phosphorylated biotinylated peptide and the detection reagents. Subsequently the amount of phosphorylated substrate was evaluated by measurement of the resonance energy transfer from the Eu-chelate to the streptavidine-XL. Therefore, the fluorescence emissions at 620 nm and 665 nm after excitation at 350 nm was measured in a HTRF reader, e.g. a Rubystar (BMG Labtechnologies, Offenburg, Germany) or a Viewlux (Perkin-Elmer). The ratio of the emissions at 665 nm and at […] was taken as the measure for the amount of phosphorylated substrate. The data were normalised (enzyme reaction without inhibitor=0% inhibition, all other assay components but no enzyme=100% inhibition).

Row | Compound | IC50 (HeLa cells) | IC50 (CDK9/CycT1) | IC50 (HeLa cells; Homo sapiens, HeLa, 96 h)
1 | COc1cc(F)ccc1-c1cc(Nc2cc(CS(C)(=N)=O)cc(C)n2)ncn1 (single isomer, unassigned) [Example 8, 6-(4-Fluoro-2-methoxyphenyl)-N-{6-methyl-4-[(S-methylsulfonimidoyl)methyl]pyridin-2-yl}pyrimidin-4-amine] | 118 nM | 6 nM | 
2 | COc1cc(F)ccc1-c1cc(Nc2cc(CS(C)(=N)=O)ccn2)ncn1 (single isomer, unassigned) [Example 2, 6-(4-Fluoro-2-methoxyphenyl)-N-{4-[(S-methylsulfonimidoyl)methyl]pyridin-2-yl}pyrimidin-4-amine] |  | 30 nM | 456 nM
3 | COc1cc(F)ccc1-c1cc(Nc2cc(CS(C)(=N)=O)cc(Cl)n2)ncn1 (single isomer, unassigned) [Example 6, N-{6-Chloro-4-[(S-methylsulfonimidoyl)methyl]pyridin-2-yl}-6-(4-fluoro-2-methoxyphenyl)pyrimidin-4-amine] | 104 nM | 5 nM | 
4 | COc1cc(F)ccc1-c1cc(Nc2cc(CS(C)(=N)=O)cc(Cl)n2)ncn1 (racemic) [Example 4, (rac)-N-{6-Chloro-4-[(S-methylsulfonimidoyl)methyl]pyridin-2-yl}-6-(4-fluoro-2-methoxyphenyl)pyrimidin-4-amine] |  | 11 nM | 109 nM
5 | COc1cc(F)ccc1-c1cc(Nc2cc(CS(C)(=N)=O)cc(Cl)n2)ncn1 (single isomer, unassigned) [Example 5, N-{6-Chloro-4-[(S-methylsulfonimidoyl)methyl]pyridin-2-yl}-6-(4-fluoro-2-methoxyphenyl)pyrimidin-4-amine] |  | 9 nM | 104 nM
6 | COc1cc(F)ccc1-c1cc(Nc2cc(CS(C)(=N)=O)ccn2)ncn1 (single isomer, unassigned) [Example 3, 6-(4-Fluoro-2-methoxyphenyl)-N-{4-[(S-methylsulfonimidoyl)methyl]pyridin-2-yl}pyrimidin-4-amine] | 850 nM | 10 nM | 
7 | COc1cc(F)ccc1-c1cc(Nc2cc(CS(C)(=N)=O)cc(C(F)(F)F)n2)ncn1 (racemic) [Example 10, (rac)-6-(4-Fluoro-2-methoxyphenyl)-N-{4-[(S-methylsulfonimidoyl)methyl]-6-(trifluoromethyl)pyridin-2-yl}pyrimidin-4-amine] |  | 3 nM | 60 nM
8 | COc1cc(F)ccc1-c1cc(Nc2cc(CS(C)(=N)=O)cc(C)n2)ncn1 (single isomer, unassigned) [Example 9, 6-(4-Fluoro-2-methoxyphenyl)-N-{6-methyl-4-[(S-methylsulfonimidoyl)methyl]pyridin-2-yl}pyrimidin-4-amine] | 52 nM | 2 nM | 
9 | COc1cc(F)ccc1-c1cc(Nc2cc(CS(C)(=N)=O)cc(C)n2)ncn1 (racemic) [Example 7, (rac)-6-(4-Fluoro-2-methoxyphenyl)-N-{6-methyl-4-[(S-methylsulfonimidoyl)methyl]pyridin-2-yl}pyrimidin-4-amine] |  | 4 nM | 121 nM
10 | COc1cc(F)ccc1-c1cc(Nc2cc(CS(C)(=N)=O)ccn2)ncn1 (racemic) [Example 1, (rac)-6-(4-Fluoro-2-methoxyphenyl)-N-{4-[(S-methylsulfonimidoyl)methyl]pyridin-2-yl}pyrimidin-4-amine] |  | 49 nM | 477 nM
